Reference: patent US5827887A, “Biphenyl compounds” (Roussel Uclaf, priority 1995, dated 1998)

Each compound was assayed against T1, human prostate 5-α-reductase (PH6) (Homo sapiens, UniProt P31213) (assay: 5-α-reductase activity in vitro, HPLC of 5-α reduced metabolites of tritiated testosterone, homogenates of human prostates (PH6)). Conditions: human prostate homogenate; testosterone substrate; pH 5.5; 37° C., 30 minutes; read-out: IC50 of inhibition of the 5-α-reductase activity of the human prostate enzyme (PH6).
T1 construct: Homogenates of human prostates were used, obtained by radical prostatectomies; from tissue; host or cells: human prostate (benign hyperplasia, radical prostatectomy), homogenate, 140,000 g pellet
T1 sequence (P31213 1-254): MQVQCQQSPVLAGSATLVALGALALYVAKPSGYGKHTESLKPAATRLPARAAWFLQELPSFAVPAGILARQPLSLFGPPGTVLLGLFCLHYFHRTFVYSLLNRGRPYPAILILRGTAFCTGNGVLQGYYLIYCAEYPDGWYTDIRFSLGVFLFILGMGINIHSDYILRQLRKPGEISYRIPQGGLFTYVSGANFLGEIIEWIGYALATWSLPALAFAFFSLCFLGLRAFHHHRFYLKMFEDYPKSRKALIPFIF
Assay type: biochemical
Procedure: The test for measuring the 5-α-reductase activity took place in vitro by incubating the enzyme and its substrate (testosterone) and measuring by HPLC chromatography the quantity of 5-α reduced metabolites formed (dihydro-testosterone (DHT) and 5-α-androstane-diol). Homogenates of human prostates were used, obtained by radical prostatectomies due to benign hyperplasia of the prostate (BHP): PH6.
The prostate was collected as soon as it left the operating theater suite and was packed in aluminum foil placed in a container filled with dry ice. In the laboratory, if the homogenate was not prepared immediately, the prostate could be kept at -80° C. The prostate was shredded over ice into very small pieces, which were homogenized in a medium A (20 mM of potassium phosphate, pH 6.5; 0.32M of sucrose; 1 mM of dithiotreitol (DTT); 50 uM NADPH), in a polytron, then in a Potter glass flask. After centrifuging at 140,000 g for 60 minutes at 4° C., the pellets obtained were suspended in 10 to 20 ml of medium B ([…] of potassium phosphate, pH 6.5; 20% of glycerol; 1 mM of dithiothreitol). The medium was distributed in Nunc tubes kept at -80° C. Determination of the proteins was carried out on a small amount of homogenate for its future use in the test and it was therefore assured of having at least 10 mg of proteins/ml of homogenate.
Incubation was carried out at a pH of 5.5 at the rate of 1 ml of medium/tube in the presence of citrate (normal medium and pH of the prostate).
1) Preparation of the substrate (S) which was the mixture of "unlabelled" testosterone and "tritiated" testosterone with an isotopic dilution of 100 in a trisodium citrate buffer pH 5.0
a) 40 mM of trisodium citrate buffer: 11.76 g of 3 Na-citrate, 2H2 O (Merk ref. Art 6448) were weighed and dissolved in 1 liter of distilled water (Milli-Q) and the solution was adjusted to pH of 5.0.
b) mixture of "unlabelled" testosterone and "tritiated testosterone with an isotopic dilution of 100: To obtain a solution of testosterone of 1 mM, 2.88 mg of "unlabelled" testosterone were weighed and dissolved in 10 ml of ethanol. This solution was diluted to 0.99/1000, that is 9.9 μl in 10 ml of citrate buffer (=10^-6 M solution). 9 μl of ^3 H-testosterone (NET-370) were added to 10 ml of the preceding solution (=isotopic dilution of 100). The substrate (S) was ready.
2) Preparation of enzyme+DTT+NADPH mixture
a) Potassium phosphate buffer, 40 mM, pH 6.5:
5.44 g de KH2 PO4 (Riedel de Haen ref. 30407) was weighed and dissolved in 1 liter of distilled water (Milli-Q) and the solution was adjusted to a pH of 6.5.
3.1 mg of DTT were weighed and dissolved in 1 ml of phosphate buffer.
8.33 mg of NADPH were weighed and dissolved in 1 ml of phosphate buffer.
d) enzyme+DTT+NADPH mixture (E):
For one test, 0.5 mg of proteins of prostate homogenate, 50 μl of DTT and 50 μl of NADPH were mixed together at 4° C. and the mixture was made up to 500 μl with the phosphate buffer.
3) Incubation (5α-reduction)
One tube was prepared for each test and 500 μl of (S) and 10 μl of inhibitor at the desired concentration (or ethanol for the controls) are put in each tube. The tubes containing mixture (S) and the flask containing mixture (E) were pre-incubated in a water bath for 3 to 5 minutes.
To start the reaction, 500 μl of E were transferred rapidly into each tube containing S+the inhibitor and the mixture was incubated at 37° C. with gentle stirring for 30 minutes. […]
In the case of `CCc1cc(-c2ccc(C(=O)O)cc2)ccc1OCC(=O)N(C(C)C)C(C)C` [Example 12, 4'-[2-[bis-(isopropyl)-amino)-2-oxoethoxy]-3'-ethyl-(1,1'-biphenyl)-4-carboxylic acid], the IC50 is reported as 2000 nM.
`CC(C)N(C(=O)COc1c(F)cc(-c2ccc(C(=O)O)cc2)cc1[N+](=O)[O-])C(C)C` [Example 4, 4'-[2-[bis-(isopropyl)-amino]-2-oxoethoxy]-3'-fluoro-5'-nitro-(1,1'-biphenyl)-4-carboxylic acid] showed an IC50 of 9.6 nM.
`O=C(COc1ccc(-c2ccc(C(=O)O)cc2)cc1)NC(c1ccccc1)(c1ccccc1)c1ccccc1` [Example 5, 4'-[2-oxo-2-([tribenzyl)-amino]-ethoxy]-(1,1'-biphenyl) -4-carboxylic acid] was tested, and the IC50 was 92 nM.
In the case of `CCc1cc(OCC(=O)N(C(C)C)C(C)C)ccc1-c1ccc(C(=O)O)cc1` [Example 11, 4'-(2-[bis-(isopropyl)-amino)-2-oxoethoxy]-2'-ethyl-(1,1'-biphenyl)-4-carboxylic acid], the IC50 is reported as 77 nM.
Compound `O=C(COc1c(F)cc(-c2ccc(C(=O)O)cc2)cc1[N+](=O)[O-])NC(c1ccccc1)(c1ccccc1)c1ccccc1` [Example 6, 3'-fluoro-5'-nitro-4'-[2-oxo-2-[(tribenzyl)-amino]-ethoxy]-(1,1'-biphenyl)-4-carboxylic acid] has an IC50 of 36 nM.
